Reference: patent publication US20120122896A1, “2,1,3-BENZOXADIAZOL DERIVATIVES FOR THE INHIBITION OF INFLUENZA A AND B VIRUS AND RESPIRATORY SYNCYTIAL VIRUS REPLICATION” (PIKE PHARMA GMBH, priority 2009, published 2012)
Read-outs that look alike come from different tables or passages of the source.

Assays:
[1] = molecular target: interaction between PB1 and PA (Influenza A virus, UniProt P03433); assay: biochemical; assay type: binding
[2] = tested on: influenza virus (A/WSN/33); assay: plaque reduction assay, influenza virus in MDCK cells; assay type: cell-based
RSV (Long strain) = assay: RSV induced cell death reduction in HEp-2 cells; assay type: cell-based, respiratory syncytial virus; conditions: serial dilution 100 to 0.14 μM, 72 h
HA-tagged PA from FluB = assay: competitive ELISA, PB1 peptide / PA of FluB; assay type: binding, influenza B virus; conditions: competitor peptides 0.048 to 3000 nM; […]; standard deviation in parenthesis; * highest concentration used

Compound	IC50 (HA-tagged PA from FluB) [nM]	IC50 (HA-tagged PA of FluA; read-out: IC50 (nM) PA (FluA)) [nM]	further results
Nc1nc(Sc2ccc([N+](=O)[O-])c3nonc23)c2ncn(C3OC(CO)C(O)C3O)c2n1 (stereo not drawn) [PKE138, 2-[2-amino-6-[(4-nitro-2,1,3-benzoxadiazol-7-yl)sulfanyl]purin-9-yl]-5-(hydroxymethyl)oxolane-3,4-diol]	–	–	IC50 ([1]; calculated from inhibition at maximum obtainable concentration where solubility too low, read-out: IC50 [μM] (ELISA)): 250 µM; Active in ELISA ([1]; prescreening): Yes; inhibition of the replication of influenza virus, particularly influenza A (summary in words) [2]: effectively inhibited; RSV activity, Maximum inhibition (in words) (RSV (Long strain)): inactive
MDVNPFLLFLKVPAQ [PB11-15 AT5F]	750	2.84	–
MDVNPTLLFLK [Compound 1-11]	–	–	IC50 (HA-tagged PA of FluA; read-out: IC50 (nM) of FluA-derived PB1 peptides (truncations)): 900 nM
MDVNPTLLFLKVPAQ [PB11-15 A]	> 3000	–	–
MDVNPWLLFLKVPAQ [PB11-15 AT6W]	628	3.4	–
MDVNPYLLFLKVPAQ [PB11-15 AT5Y]	107	21.6	–
